Data from patent US12285431B2, “Treatment of Rb-negative tumors using topoisomerase inhibitors in combination with cyclin dependent kinase 4/6 inhibitors” (G1 Therapeutics, Inc., priority 2014, dated 2025).
Like-named read-outs stand apart in the source and are kept apart here.

Key:
[1] = tested on: small cell lung cancer cell lines; settings: Hamilton et al., cited from earlier work; for cytotoxic effect in combination with topotecan (in words): Journal of Cancer Therapy (2013); for cytotoxic / chemosensitizing effect in combination with various camptothecin derivatives (in words): Molecules (2014), rubitecan, 9AC, topotecan, SN38, CPT109
CDK4/CyclinD1 = CDK4/CyclinD1 (Homo sapiens, UniProt P11802); experiment: CDK4/cyclinD1 kinase assay (Nanosyn, Caliper microfluidic kinase detection); format: biochemical; settings: read-out: CDK4/CycD1 IC50
Chain of CDK4/CyclinD1 (P11802 whole entry, species assumed): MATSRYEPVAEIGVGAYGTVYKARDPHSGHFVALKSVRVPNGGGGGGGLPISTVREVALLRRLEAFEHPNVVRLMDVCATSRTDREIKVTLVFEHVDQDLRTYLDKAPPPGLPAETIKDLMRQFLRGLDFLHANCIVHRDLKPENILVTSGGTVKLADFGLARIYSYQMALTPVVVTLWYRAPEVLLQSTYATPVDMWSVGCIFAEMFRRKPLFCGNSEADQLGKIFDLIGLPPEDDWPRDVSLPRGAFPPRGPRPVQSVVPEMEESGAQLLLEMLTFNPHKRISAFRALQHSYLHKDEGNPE
Chain of CDK4/CyclinD1 (P24385 whole entry partner, species assumed): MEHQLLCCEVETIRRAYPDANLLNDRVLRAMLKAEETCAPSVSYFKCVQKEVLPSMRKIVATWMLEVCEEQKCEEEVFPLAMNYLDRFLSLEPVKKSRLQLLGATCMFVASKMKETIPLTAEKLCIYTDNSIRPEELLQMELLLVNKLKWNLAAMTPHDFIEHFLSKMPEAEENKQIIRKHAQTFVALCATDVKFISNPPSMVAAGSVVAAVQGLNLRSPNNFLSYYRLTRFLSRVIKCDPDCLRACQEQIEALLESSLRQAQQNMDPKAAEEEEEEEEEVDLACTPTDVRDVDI
Method: The assays were performed using microfluidic kinase detection technology (Caliper Assay Platform). The compounds were tested in 12-point dose-response format in singlicate at Km for ATP. Phosphoacceptor substrate peptide concentration used was 1 μM for all assays and Staurosporine was used as the reference compound for all assays. Specifics of each assay are as described below:
CDK4/CyclinD1: Enzyme concentration: 1 nM; ATP concentration: 200 μM; Incubation time: 10 hr.

CDK2/CyclinE = CDK2/CyclinE (Homo sapiens, UniProt P24941); experiment: CDK2/cyclinE kinase assay (Nanosyn, Caliper); format: biochemical; settings: Table 2
HS68 cells = experiment: G1 arrest (cellular G1 and S-phase) assay, propidium iodide flow cytometry; format: cell-based, human
Method: HS68 cells (human skin fibroblast cell line (Rb-positive)) were stained with propidium iodide staining solution and run on Dako Cyan Flow Cytometer. The fraction of cells in G0-G1 DNA cell cycle versus the fraction in S-phase DNA cell cycle was determined using FlowJo 7.2.2 analysis.
The compounds listed in Table 1 were tested for their ability to arrest HS68 cells at the G1 phase of the cell cycle.

[2] = tested on: ZR-75-1 (breast ductal carcinoma, Rb-positive); experiment: Cellular proliferation assay (CellTiter-Glo), ZR-75-1; format: cell-based; settings: Homo sapiens, ZR-75-1, 144 h, cell viability after six days, read-out: ZR75-1 Cellular EC50
Method: (§1) Further cellular proliferation assays were conducted using the following cancer cell lines: MCF7 (breast adenocarcinoma—Rb-positive), ZR-75-1 (breast ductal carcinoma—Rb-positive), H69 (human small cell lung cancer—Rb-negative) cells, or A2058 (human metastatic melanoma cells—Rb-negative). These cells were seeded in Costar (Tewksbury, Massachusetts) 3093 96 well tissue culture treated white walled/clear bottom plates. Cells were treated with the compounds of Table 1 as nine point dose response dilution series from 10 uM to 1 nM. Cells were exposed to compounds and then cell viability was determined after either four (H69) or six (MCF7, ZR75-1, A2058) days as indicated using the CellTiter-Glo® luminescent cell viability assay (CTG; Promega, Madison, Wisconsin, United States of America) following the manufacturer's recommendations. Plates were read on BioTek (Winooski, Vermont) Syngergy2 multi-mode plate reader. The Relative Light Units (RLU) were plotted as a result of variable molar concentration and data was analyzed using Graphpad (LaJolla, California) Prism 5 statistical software to determine the EC50 for each compound.

[3] = tested on: H69 (human small cell lung cancer, Rb-negative) cells; experiment: Cellular proliferation assay (CellTiter-Glo), H69; format: cell-based; settings: NCI-H69, 96 h, cell viability after four days
Method: as §1

[4] = tested on: MCF7 (breast adenocarcinoma, Rb-positive); experiment: Cellular proliferation assay (CellTiter-Glo), MCF7; format: cell-based; settings: Homo sapiens, MCF7, 144 h, cell viability after six days
Method: as §1

[5] = Mouse pharmacokinetics (oral gavage / intravenous); format: in vivo, mice; settings: for AUC 0-inf (uM * h) i.v.: 10 mg/kg intravenous injection; for AUC (uM * h) p.o. / Cmax / Tmax (h) p.o. / t1/2 (h) p.o.: 30 mg/kg oral gavage
[6] = tested on: A2058 (human metastatic melanoma cells, Rb-negative); experiment: Cellular proliferation assay (CellTiter-Glo), A2058; format: cell-based; settings: A2058, 144 h, cell viability after six days
Method: as §1

[7] = tested on: NCI-H69 SCLC xenograft (Rb-negative); format: in vivo
Text: An Rb-negative model of small cell lung cancer was used in the following example. Briefly, xenografts of National Cancer Institute (NCI) […] cells were grafted onto the mice (Athymic Nude (Crl:NU(NCr)-Foxn1^nu); 6-12 week old females) using the South Texas Accelerated Research Therapeutics (START) Cell-Based Xenograft (START-CBX) tumor model. H69 cells are human small cell lung cancer cells and are Rb-negative.
Data collected from the efficacy study included animal weights, observations and tumor dimensions. This information was used to determine agent tolerability based on weight change and gross physiologic changes and anticancer activity based on tumor growth delay or regression. The designated endpoint for this study was an individual tumor volume of 1 cm^3 or 60 days following treatment initiation.
Tumor fragments from NCI-H69 were harvested from host animals and implanted into immune-deficient mice and the study initiated at a mean tumor volume of approximately 150-250 mm^3.
Additional details of the study are outlined in Table 6 below. […] Tumor size was examined twice per week and the endpoint for this study was Day 59.

[8] = Table 2, 12-point dose-response, ATP at Km (200 μM), 10 hr
[9] = Group 6: Compound T vehicle and topotecan 0.6 mg/kg IP qdx5x4

Row | SMILES | EC50 [2] | EC50 [3] | EC50 [4] | EC50 [6] | EC50 (HS68 cells; Homo sapiens, Hs68, HS68 cells) | IC50 (CDK4/CyclinD1; [8]) | cytotoxic / chemosensitizing effect in combination with various camptothecin derivatives (in words) [1] | further results
1 | CC[C@H](CO)Nc1nc(NCc2ccccc2)c2ncn(C(C)C)c2n1 [roscovitine] |  |  |  |  |  |  | synergistic cytotoxic effect | cytotoxic effect in combination with topotecan (in words) [1]: synergistic cytotoxic effect
2 | CC(=O)c1c(C)c2cnc(Nc3ccc(N4CCNCC4)cn3)nc2n(C2CCCC2)c1=O [PD0332991, palbociclib] |  |  |  |  |  |  | low chemosensitizing activity | 
3 | Cn1cnc2c(NCc3ccccc3)nc(NCCO)nc21 [olomoucine] |  |  |  |  |  |  | synergistic cytotoxic effect | cytotoxic effect in combination with topotecan (in words) [1]: synergistic cytotoxic effect
4 | CCN(CC)C1CCN(c2ccc(Nc3ncc4cc5n(c4n3)C3(CCCCC3)CNC5=O)nc2)C1 (stereo not shown) [UU] |  |  |  |  |  |  |  | IC50 (CDK4/CyclinD1): 7.3 nM; Fold Selectivity (CDK2/CycE/CDK4) (CDK2/CyclinE): 542; IC50 (CDK2/CyclinE; ATP 100 μM, 1 hr, read-out: CDK2/CycE IC50): 3960 nM; EC50 (HS68 cells; HS68 cells): 300 nM
5 | CC[C@@]1(O)C(=O)OCc2c1cc1n(c2=O)Cc2cc3c(CN(C)C)c(O)ccc3nc2-1 [topotecan, reference compound] |  |  |  |  |  |  |  | activity toward NCI-H69 xenografts / tumor volume (in words) ([7]; Compound T alone 100 mg/kg, topotecan 0.6 mg/kg, combination with each Compound T dose (100, 50 or 10 mg/kg), FIG. 16): active and reduced tumor volumes; CR (tumor volume < 15 mm^3) [7, 9]: 0; LTS (individual tumor volume < volume endpoint at study time endpoint) [7, 9]: 1; MTTE ± SD (timepoint in days to reach designated tumor volume or time endpoint) [7, 9]: 52 ± 7 days; PR (%) (tumor volume ≥ 50% regression versus Day 0) [7, 9]: 0%; T-C (difference in days between MTTE of treatment and control groups) [7, 9]: 34 days; TFS (complete responder at study endpoint) [7, 9]: 0; survival versus vehicle or Compound T only (in words) ([7]; topotecan 0.6 mg/kg, with or without Compound T, FIG. 15): survived significantly longer than mice treated with vehicle or Compound T only

More lines, main results first:

Row | EC50 [2] | EC50 [3] | EC50 [4] | EC50 [6] | EC50 (HS68 cells; Homo sapiens, Hs68, HS68 cells) | IC50 (CDK4/CyclinD1; [8]) | SMILES | cytotoxic / chemosensitizing effect in combination with various camptothecin derivatives (in words) [1] | further results
6 | 35 nM | > 3000 nM | 49 nM | 2610 nM | 100 nM |  | O=C1NCC2(CCCCC2)n2c1cc1cnc(Nc3ccc(N4CCNCC4)cn3)nc12 [Compound Q] |  | AUC 0-inf (uM * h) i.v. [5]: 0.95 µM·h; AUC (uM * h) p.o. [5]: 0.15 µM·h; Cmax [5]: 0.16 µM; Tmax (h) p.o. [5]: 0.5 h; t1/2 (h) p.o. [5]: 0.8 h
7 | 59 nM | > 3000 nM | 70 nM | > 3000 nM | 25 nM |  | O=C1NCC2(CCCCC2)n2c1cc1cnc(Nc3ccc(N4CCC(N5CCOCC5)CC4)cn3)nc12 [Compound U] |  | AUC 0-inf (uM * h) i.v. [5]: 0.76 µM·h; AUC (uM * h) p.o. [5]: 3.3 µM·h; Cmax [5]: 4.2 µM; Tmax (h) p.o. [5]: 0.5 h; t1/2 (h) p.o. ([5]; 30 mg/kg): 3 h
8 | 24 nM | > 3000 nM | 28 nM | 1440 nM | 25 nM | 1 nM | O=C1NCC2(CCCCC2)n2c1cc1cnc(Nc3ccc(N4CCC(N5CCCCC5)CC4)cn3)nc12 [N] |  | 
9 | 53 nM | 2950 nM | 94 nM | 1660 nM | 80 nM | 0.8 nM | CN(C)C1CCN(c2ccc(Nc3ncc4cc5n(c4n3)C3(CCCCC3)CNC5=O)nn2)CC1 [SS] |  | 
10 | 46 nM | 2910 nM | 57 nM | 1670 nM | 50 nM | 0.9 nM | CN1CCN(c2ccc(Nc3ncc4cc5n(c4n3)C3(CCCCC3)CNC5=O)nc2)CC1(C)C [D] |  | 
